Laboratory results reported in ChEMBL document CHEMBL1773047, “Antiparasitic compounds from Cupania cinerea with activities against Plasmodium falciparum and Trypanosoma brucei rhodesiense” (J Nat Prod, 2011).

Legend:
Plasmodium falciparum = test: Antiplasmodial activity against chloroquine- and pyrimethamine-resistant Plasmodium falciparum K1 infected in human red blood cells assessed as [3H]hypoxanthine incorporation after 48 hrs by liquid scintillation counting; format: functional, organism-based
[1] = test system: Trypanosoma brucei rhodesiense; test: Antiparasitic activity against Trypanosoma brucei rhodesiense STIB 900 bloodstream form after 72 hrs by microplate fluorimetry; format: functional, organism-based; conditions: STIB 900, 72 h
L6 = test: Cytotoxicity against rat L6 cells after 72 hrs by microplate fluorimetry; format: cell-based; conditions: L6, 72 h

Row | Structure (SMILES) | IC50 (Plasmodium falciparum) [µM] | IC50 [1] [µM] | IC50 (L6) [µM]
1 | CC(=O)O[C@@H]1[C@@H](OC(C)=O)[C@H](C)O[C@@H](O[C@H]2[C@H](OC/C=C(\C)CC/C=C(\C)CC/C=C(\C)CCC=C(C)C)O[C@H](CO)[C@@H](O)[C@@H]2O)[C@@H]1OC(C)=O | 2.1 | 15.8 | 8.7
2 | CC(C)=CCCC(C)C1CC=C(C)C(O)C1O (configuration not stated) | > 20 | 38.2 | > 90
3 | CC(C)=CCC[C@H](C)[C@@H]1C=C[C@](C)(O)[C@@H](O)C1 | > 20 | 61.3 | > 90
4 | CC(C)[C@@]12CC[C@]3(C)[C@H]4CC[C@@H]5[C@@]6(C)CCC(=O)C(C)(C)[C@@H]6CC[C@@]5(C)[C@]4(C)CC[C@@]13O2 | > 10 | > 90 | > 90
5 | C=C1CC[C@@H]2O[C@]2(C)CC[C@@H]2[C@@H]1CC2(C)C | > 25 | > 90 | > 90
6 | C=C(C)[C@@H]1CC[C@]2(CO)CC[C@]3(C)[C@H](CC[C@@H]4[C@@]5(C)CCC(=O)C(C)(C)[C@@H]5CC[C@]43C)[C@@H]12 [BETULONE] | 3 | 18.9 | 22.2
7 | CC(=O)OC[C@H]1O[C@@H](OC/C=C(\C)CC/C=C(\C)CC/C=C(\C)CCC=C(C)C)[C@H](O[C@@H]2O[C@@H](C)[C@H](OC(C)=O)[C@@H](OC(C)=O)[C@H]2OC(C)=O)[C@@H](O)[C@@H]1O [CUPACINOSIDE] | 1.3 | 4.6 | 11.6
8 | CC1(C)OC(=O)CC[C@]2(C)[C@H]3CC[C@H]4[C@@](C)(CC[C@@]5(C)C(C)(C)CCC[C@]45C)O[C@]3(C)CC[C@@H]12 [CUPACINOXEPIN] | 8.7 | 71.6 | > 90
9 | CCCCCC(=O)Cc1cc(OC)cc(O)c1C(=O)Oc1cc(CC(=O)CCCCC)c(C(=O)OC)c(OC)c1 [GUSTASTATIN] | > 9 | 19.4 | > 90
10 | COc1cc(C)c2c(=O)c3c(O)cc(OC)cc3oc2c1 [LICHEXANTHONE] | > 20 | > 90 | 52.1
11 | C=C(C)[C@@H]1CC[C@]2(C)CC[C@]3(C)[C@H](CC[C@@H]4[C@@]5(C)CCC(=O)C(C)(C)[C@@H]5CC[C@]43C)[C@@H]12 [LUPENONE] | 4.7 | > 90 | > 90
12 | COc1cc2ccc(=O)oc2cc1O [SCOPOLETIN] | > 25 | > 90 | > 90
13 | CC1(C)CC[C@]2(C)CC=C3[C@]4(C)CC[C@H]5C(C)(C)[C@@H](O)CC[C@]5(C)[C@H]4CC[C@@]3(C)[C@@H]2C1 [TARAXEROL] | 8.5 | 10.5 | > 90
14 | CC1(C)CC[C@]2(C)CC=C3[C@]4(C)CC[C@H]5C(C)(C)C(=O)CC[C@]5(C)[C@H]4CC[C@@]3(C)[C@@H]2C1 [TARAXERONE] | > 10 | > 90 | > 90
